Earlier results in US20150258078A1 (priority 2014, published 2015).
Where two headings read alike, the source gives them in different places.

Columns and labels:
[1] = system: type 2 diabetic and nondiabetic subjects; details: 61.4 micromol/day for 28 days; for VLDL, mean of absolute differences between 0 and 28 day treatment +/- S.E.M. / triacylglycerol, mean of absolute differences between 0 and 28 day treatment +/- S.E.M.: plasma
[2] = system: male inbred BHE (IN-BHE) rats; details: after the injection of 300 µg
[3] = system: patients with elevated cholesterol and triglycerides; details: multiple clinical trials; daily intakes 600 to 1200 mg/day

| Compound | VLDL, mean of absolute differences between 0 and 28 day treatment +/- S.E.M. ([1]; diabetic group) | triacylglycerol, mean of absolute differences between 0 and 28 day treatment +/- S.E.M. ([1]; diabetic group) | cholesterol, glucose and insulin ([1]; diabetic or nondiabetic subjects) | VLDL, mean of absolute differences between 0 and 28 day treatment +/- S.E.M. ([1]; nondiabetic group) | triacylglycerol, mean of absolute differences between 0 and 28 day treatment +/- S.E.M. ([1]; nondiabetic group) | plasma levels of lactate and pyruvate [2] | HDL cholesterol increased [3] [%] | total cholesterol decreased [3] [%] | triglycerides decreased [3] [%] |
| --- | --- | --- | --- | --- | --- | --- | --- | --- | --- |
| O=C(O)CCCC[C@@H]1SC[C@@H]2NC(=O)N[C@@H]21 [Biotin] | −0.11+/−0.04 | −0.55+/−0.2 | no significant effects | −0.18+/−0.07 | −0.92+/−0.36 | fell | – | – | – |
| Pantethine | – | – | – | – | – | – | 9 | 12 | 18 |
